Activity calls are given as the source filed them. The rule behind the calls is not given here.
Assays:
[1] = target: T1, Beta-glucuronidase (Bos taurus) (UniProt A3KMY8); test: Inhibition of bovine liver beta glucuronidase assessed as p-nitrophenol formation at 0.2 mM after 30 mins by spectrophotometric method
T1 sequence (whole entry): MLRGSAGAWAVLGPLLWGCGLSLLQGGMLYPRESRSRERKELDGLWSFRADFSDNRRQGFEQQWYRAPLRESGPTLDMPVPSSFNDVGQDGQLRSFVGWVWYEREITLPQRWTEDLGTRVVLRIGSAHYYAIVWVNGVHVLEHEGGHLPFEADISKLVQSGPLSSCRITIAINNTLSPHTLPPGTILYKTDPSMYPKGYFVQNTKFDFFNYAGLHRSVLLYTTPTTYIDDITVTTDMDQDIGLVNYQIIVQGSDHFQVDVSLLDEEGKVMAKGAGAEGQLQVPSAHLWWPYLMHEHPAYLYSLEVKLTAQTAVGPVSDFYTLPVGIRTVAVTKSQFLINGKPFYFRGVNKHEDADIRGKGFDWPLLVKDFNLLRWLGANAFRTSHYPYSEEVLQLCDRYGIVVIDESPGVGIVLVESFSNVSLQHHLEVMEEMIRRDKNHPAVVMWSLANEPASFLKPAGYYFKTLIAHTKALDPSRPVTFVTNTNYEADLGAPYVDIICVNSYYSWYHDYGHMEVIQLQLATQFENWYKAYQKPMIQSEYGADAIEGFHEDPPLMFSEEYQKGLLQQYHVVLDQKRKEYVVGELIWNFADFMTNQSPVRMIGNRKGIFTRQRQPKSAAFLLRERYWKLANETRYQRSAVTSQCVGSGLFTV

[2] = Inhibition of alpha-chymotrypsin
[3] = Inhibition of urease
[4] = target: T1, Beta-glucuronidase (Bos taurus); test: (§1) Inhibition of bovine liver beta glucuronidase assessed as p-nitrophenol formation after 30 mins by spectrophotometric method
[5] = target: T2, Beta-glucuronidase (Bos taurus, UniProt A3KMY8); test: as §1
T2 sequence (A3KMY8 whole entry): T1 sequence (whole entry)

[6] = tested on: 3T3-L1; test: Cytotoxic activity against mouse 3T3L1 cells assessed as cell viability at 1 to 20 ug/ml after 48 hrs by MTT assay; type: cell-based; conditions: 3t3-l1, 48 h
[7] = tested on: CC-1; test: Cytotoxic activity against Wistar rat CC1 cells assessed as cell viability at 1 to 20 ug/ml after 48 hrs by MTT assay; type: cell-based; conditions: cc-1, 48 h
[8] = target: T1, Beta-glucuronidase (Bos taurus); test: Ratio of D-saccharic acid 1,4-lactone IC50 to compound IC50 for bovine liver beta glucuronidase

Structure (SMILES) | inhibition [1] | inhibition [2] | inhibition [3] | inhibition [4] | IC50 [5] | Ratio IC50 [8] | Activity [6] | Activity [7]
c1csc(-c2nc3ccccc3s2)c1 | < 50% | inactive | inactive |  |  |  |  | 
c1ccc2sc(-c3ccncc3)nc2c1 | < 50% | inactive | inactive |  |  |  |  | 
Brc1ccc(-c2nc3ccccc3s2)cc1 |  | inactive | inactive | inactive |  |  |  | 
Clc1ccc(-c2nc3ccccc3s2)cc1Cl | < 50% | inactive | inactive |  |  |  |  | 
Clc1ccc(-c2nc3ccccc3s2)c(Cl)c1 |  | inactive | inactive | inactive |  |  |  | 
Clc1cccc(-c2nc3ccccc3s2)c1 | < 50% | inactive | inactive |  |  |  |  | 
Oc1ccc(-c2nc3ccccc3s2)cc1O |  | inactive | inactive |  | 94 µM |  | Non-toxic | Non-toxic
Cc1ccc(-c2nc3ccccc3s2)cc1 | < 50% | inactive | inactive |  |  |  |  | 
Clc1ccc(-c2nc3ccccc3s2)cc1 | < 50% | inactive | inactive |  |  |  |  | 
CN(C)c1ccc(-c2nc3ccccc3s2)cc1 |  | inactive | inactive | inactive |  |  |  | 
c1ccc2cc(-c3nc4ccccc4s3)ccc2c1 | < 50% | inactive | inactive |  |  |  |  | 
COc1ccc(-c2nc3ccccc3s2)cc1OC |  | inactive | inactive | inactive |  |  |  | 
Oc1ccc(-c2nc3ccccc3s2)cc1 |  | inactive | inactive |  | 8.9 µM |  | Non-toxic | Non-toxic
Oc1cc(O)c(-c2nc3ccccc3s2)cc1O |  | inactive | inactive |  | 2.26 µM | 24 | Non-toxic | Non-toxic
c1cncc(-c2nc3ccccc3s2)c1 |  | inactive | inactive | inactive |  |  |  | 

The next lines start with results.

inhibition [1] | inhibition [2] | inhibition [3] | inhibition [4] | IC50 [5] | Ratio IC50 [8] | Structure (SMILES) | Activity [6] | Activity [7]
 | inactive | inactive |  | 4.23 µM | 12 | Oc1ccccc1-c1nc2ccccc2s1 | Non-toxic | Non-toxic
< 50% | inactive | inactive |  |  |  | Cc1ccccc1-c1nc2ccccc2s1 |  | 
 | inactive | inactive |  | 8.9 µM |  | Oc1ccc(O)c(-c2nc3ccccc3s2)c1 | Non-toxic | Non-toxic
< 50% | inactive | inactive |  |  |  | COc1cccc(-c2nc3ccccc3s2)c1O |  | 
 | inactive | inactive | inactive |  |  | Fc1ccccc1-c1nc2ccccc2s1 |  | 
 | inactive | inactive |  | 36.1 µM |  | Oc1cccc(-c2nc3ccccc3s2)c1 | Non-toxic | Non-toxic
 | inactive | inactive | inactive |  |  | CCOc1cccc(-c2nc3ccccc3s2)c1O |  | 
 | inactive | inactive | inactive |  |  | CCOc1ccc(-c2nc3ccccc3s2)cc1 |  | 
< 50% | inactive | inactive |  |  |  | Oc1cccc(-c2nc3ccccc3s2)c1O |  | 
< 50% | inactive | inactive |  |  |  | Oc1ccc(Cl)cc1-c1nc2ccccc2s1 |  | 
 | inactive | inactive |  | 19.4 µM |  | Oc1ccc(-c2nc3ccccc3s2)c(O)c1 | Non-toxic | Non-toxic

— ChEMBL document CHEMBL1806478, “Synthesis of novel inhibitors of β-glucuronidase based on benzothiazole skeleton and study of their binding affinity by molecular docking” (Bioorg Med Chem, 2011)
